Experimental data reported in ChEMBL document CHEMBL1201862, “PubChem BioAssay data set” (2004).
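1) Cells in 96-well plates. 2) Compound, 48 h, 5 concentrations. 3) Linear interpolation between surrounding doses. 4) Unreached endpoint = highest concentration. Here, GI50 denotes the concentration required for 50% inhibition of growth.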 Active and inactive are the calls of the source. Cut-off read from the data, not from the text of the source: active = GI50 up to about 1.1 µM and inactive = higher.

Key:
Assay in all cases: NCI-60 cell line screen, 48 h
SK-OV-3 = test system: SK-OV-3
MCF7 = test system: MCF7
786-0 = test system: 786-0
NCI-H226 = test system: NCI-H226
NCI-H460 = test system: NCI-H460
EKVX = test system: EKVX
ACHN = test system: ACHN
DU-145 = test system: DU-145
PC-3 = test system: PC-3
HCC 2998 = test system: HCC 2998
OVCAR-8 = test system: OVCAR-8
SF-295 = test system: SF-295
NCI-H23 = test system: NCI-H23
NCI/ADR-RES = test system: NCI/ADR-RES
CAKI-1 = test system: CAKI-1
SK-MEL-2 = test system: SK-MEL-2
IGROV-1 = test system: IGROV-1
LOX IMVI = test system: LOX IMVI
NCI-H522 = test system: NCI-H522
HL-60 = test system: HL-60

SMILES	GI50 (SK-OV-3)	GI50 (MCF7)	GI50 (786-0)	GI50 (NCI-H226)	GI50 (NCI-H460)	GI50 (EKVX)	GI50 (ACHN)	GI50 (DU-145)	GI50 (PC-3)	GI50 (HCC 2998)	GI50 (OVCAR-8)	GI50 (SF-295)	GI50 (NCI-H23)	GI50 (NCI/ADR-RES)	GI50 (CAKI-1)	GI50 (SK-MEL-2)	GI50 (IGROV-1)	GI50 (LOX IMVI)	GI50 (NCI-H522)	GI50 (HL-60)
COc1ccc(/C=N/n2c(Cc3ccccc3)n[nH]c2=O)cc1	> 100 µM (inactive)	> 100 µM (inactive)	> 100 µM (inactive)	> 100 µM (inactive)	> 100 µM (inactive)	> 100 µM (inactive)	> 100 µM (inactive)	> 100 µM (inactive)	> 100 µM (inactive)	> 100 µM (inactive)	> 100 µM (inactive)	39.8 µM (inactive)	94.8 µM (inactive)	> 100 µM (inactive)	> 100 µM (inactive)	> 100 µM (inactive)				
C=C(C)c1nc(C#N)c(N)o1	> 100 µM (inactive)	> 100 µM (inactive)	> 100 µM (inactive)	> 100 µM (inactive)	> 100 µM (inactive)	> 100 µM (inactive)	> 100 µM (inactive)	> 100 µM (inactive)	> 100 µM (inactive)	> 100 µM (inactive)	> 100 µM (inactive)	> 100 µM (inactive)	> 100 µM (inactive)	> 100 µM (inactive)	> 100 µM (inactive)	> 100 µM (inactive)	36.3 µM (inactive)	> 100 µM (inactive)		
COC1OC(Cn2c(C)nc(Br)c2Br)C(O)C(O)C1O (configuration not stated)	> 100 µM (inactive)	> 100 µM (inactive)	> 100 µM (inactive)		> 100 µM (inactive)	> 100 µM (inactive)	> 100 µM (inactive)	> 100 µM (inactive)	> 100 µM (inactive)	> 100 µM (inactive)	> 100 µM (inactive)	> 100 µM (inactive)	> 100 µM (inactive)	> 100 µM (inactive)	> 100 µM (inactive)	> 100 µM (inactive)	> 100 µM (inactive)		> 100 µM (inactive)	
CC1C[C@]2(C)C(=O)Nc3ccccc3[C@@H]2Nc2ccccc21 (some centres not stated)		21 µM (inactive)	22 µM (inactive)	26.1 µM (inactive)	28.1 µM (inactive)	19.9 µM (inactive)	27.1 µM (inactive)	27.7 µM (inactive)	17.6 µM (inactive)	33.7 µM (inactive)	14.8 µM (inactive)	31.6 µM (inactive)	19.5 µM (inactive)	19.8 µM (inactive)	20.3 µM (inactive)	20.1 µM (inactive)	24.4 µM (inactive)	16.3 µM (inactive)		36.4 µM (inactive)
CC(C)(C)NC(=S)N/N=C/c1ccccn1	1.96 µM (inactive)	< 0.01 µM (active)	0.0545 µM (active)	1 µM (active)	0.968 µM (active)	0.0596 µM (active)	< 0.0237 µM (active)	2.04 µM (inactive)	< 0.0164 µM (active)	6.84 µM (inactive)	0.612 µM (active)	2.84 µM (inactive)		0.0343 µM (active)	< 0.0118 µM (active)	0.724 µM (active)	0.0281 µM (active)			< 0.01 µM (active)
Cc1cc(C)c2c(n1)S(=O)(=O)N(CCCN1CCN(c3cccc(C(F)(F)F)c3)CC1)C(C(=O)c1ccccc1)=C2O	20 µM (inactive)	7.13 µM (inactive)	4.48 µM (inactive)	1.03 µM (active)	4.66 µM (inactive)	4 µM (inactive)	9.04 µM (inactive)	13.4 µM (inactive)	9.82 µM (inactive)		5.66 µM (inactive)	4.11 µM (inactive)	5.06 µM (inactive)	3.21 µM (inactive)	2.79 µM (inactive)	17.3 µM (inactive)	5.66 µM (inactive)	3.03 µM (inactive)	4 µM (inactive)	2.61 µM (inactive)
O=[N+]([O-])c1cc(Cl)cc2c1nc(NCCO)c1ccccc12	29.1 µM (inactive)	2.28 µM (inactive)	6.81 µM (inactive)	13.5 µM (inactive)	2.58 µM (inactive)	6.21 µM (inactive)	6.43 µM (inactive)	1.69 µM (inactive)	4.97 µM (inactive)		16.3 µM (inactive)	13.1 µM (inactive)	9.75 µM (inactive)	23.5 µM (inactive)	16.5 µM (inactive)	10.5 µM (inactive)	15.2 µM (inactive)	17.2 µM (inactive)	13.6 µM (inactive)	3.5 µM (inactive)
c1ccc(-c2nc(-c3ccccc3SSc3ccccc3-c3nc(-c4ccccc4)nn3-c3ccccc3)n(-c3ccccc3)n2)cc1	> 100 µM (inactive)	> 100 µM (inactive)	> 100 µM (inactive)	> 100 µM (inactive)	> 100 µM (inactive)	> 100 µM (inactive)	> 100 µM (inactive)	> 100 µM (inactive)	> 100 µM (inactive)	> 100 µM (inactive)	> 100 µM (inactive)	> 100 µM (inactive)	> 100 µM (inactive)	> 100 µM (inactive)	> 100 µM (inactive)		> 100 µM (inactive)	> 100 µM (inactive)		> 100 µM (inactive)
Cn1c2c3ccccc3nc-2c(O)c2ccccc21 [HYDROXYCRYPTOLEPINE]	> 100 µM (inactive)	> 100 µM (inactive)	> 100 µM (inactive)	> 100 µM (inactive)	59.2 µM (inactive)	> 100 µM (inactive)	48.6 µM (inactive)	3.46 µM (inactive)	> 100 µM (inactive)	> 100 µM (inactive)	> 100 µM (inactive)	> 100 µM (inactive)	> 100 µM (inactive)	> 100 µM (inactive)	8.91 µM (inactive)	> 100 µM (inactive)	35.4 µM (inactive)	> 100 µM (inactive)	> 100 µM (inactive)	
CC(C)(C)OC(=O)CN1CCNCCNCC1	> 100 µM (inactive)	> 100 µM (inactive)	> 100 µM (inactive)	> 100 µM (inactive)	> 100 µM (inactive)	> 100 µM (inactive)	> 100 µM (inactive)	> 100 µM (inactive)	> 100 µM (inactive)		> 100 µM (inactive)	> 100 µM (inactive)	> 100 µM (inactive)	> 100 µM (inactive)	> 100 µM (inactive)	> 100 µM (inactive)	> 100 µM (inactive)	> 100 µM (inactive)	> 100 µM (inactive)	9.55 µM (inactive)
CC(C)CCCC(C)[C@H]1CC[C@H]2[C@@H]3CC[C@H]4C[C@@H](CCC=C(c5cc(Cl)c(O)c(C(=O)OC(C)(C)C)c5)c5cc(Cl)c(O)c(C(=O)OC(C)(C)C)c5)CC[C@]4(C)[C@H]3CC[C@]12C (some centres not stated)	> 50 µM (inactive)	> 50 µM (inactive)	> 50 µM (inactive)			> 50 µM (inactive)		> 50 µM (inactive)	> 50 µM (inactive)	> 50 µM (inactive)		> 50 µM (inactive)	> 50 µM (inactive)	> 50 µM (inactive)	> 50 µM (inactive)	> 50 µM (inactive)	> 50 µM (inactive)	> 50 µM (inactive)		> 50 µM (inactive)
Cc1ccccc1Nc1cn(COCc2ccccc2)c(=O)[nH]c1=O		> 100 µM (inactive)	> 100 µM (inactive)		69.5 µM (inactive)	30.7 µM (inactive)	> 100 µM (inactive)	80.4 µM (inactive)	38.4 µM (inactive)	> 100 µM (inactive)		> 100 µM (inactive)	56.5 µM (inactive)	40.2 µM (inactive)	> 100 µM (inactive)		33 µM (inactive)	59.8 µM (inactive)	40.2 µM (inactive)	> 100 µM (inactive)
O=C1N[C@H]2c3c(Cl)sc(Cl)c3[C@@H](O)[C@H]2O1	> 100 µM (inactive)	> 100 µM (inactive)	> 100 µM (inactive)		> 100 µM (inactive)	> 100 µM (inactive)	> 100 µM (inactive)	> 100 µM (inactive)	> 100 µM (inactive)	> 100 µM (inactive)	> 100 µM (inactive)			> 100 µM (inactive)	> 100 µM (inactive)	> 100 µM (inactive)	> 100 µM (inactive)			> 100 µM (inactive)
c1csc(-c2ccc(-c3cccs3)c3nsnc23)c1	> 49.7 µM (inactive)	0.11 µM (active)	22.8 µM (inactive)	> 33.5 µM (inactive)	21.1 µM (inactive)	2.23 µM (inactive)	> 65.2 µM (inactive)	33.8 µM (inactive)	> 54 µM (inactive)		19.7 µM (inactive)	42.3 µM (inactive)	22 µM (inactive)	> 49.5 µM (inactive)	> 59.8 µM (inactive)	> 48.6 µM (inactive)	0.875 µM (active)	26.3 µM (inactive)	> 100 µM (inactive)	5.4 µM (inactive)
COc1ccc(NC(=S)NNC(=O)c2cc(-c3ccccc3)nc3ccccc23)cc1	0.479 µM (active)	0.568 µM (active)	17.9 µM (inactive)	20.1 µM (inactive)	16.1 µM (inactive)		22.1 µM (inactive)	18.1 µM (inactive)	19.2 µM (inactive)	12.1 µM (inactive)	17.2 µM (inactive)	3.5 µM (inactive)	13.6 µM (inactive)	12.3 µM (inactive)	23.4 µM (inactive)	16 µM (inactive)	26.5 µM (inactive)		17.1 µM (inactive)	
